From PubChem BioAssay (NCI)
Where “and” joins values, the source holds several entries; their conditions need not be identical. Equal entries are not always repeated.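 In this assay, cells in 96-well plates receive the compound at five concentrations for 48 hours. Endpoints are linearly interpolated between the surrounding concentrations. GI50: concentration for 50% inhibition of growth. TGI is the concentration that stops growth completely.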

Assays:
Experiment in all cases: NCI-60 cell line screen, 48 h
HL-60(TB) leukemia = system: HL-60(TB) leukemia
DLD-1 colon = system: DLD-1 colon
NCI-H522 lung = system: NCI-H522 lung
PC-3 prostate = system: PC-3 prostate
SNB-75 CNS = system: SNB-75 CNS
UACC-62 melanoma = system: UACC-62 melanoma
SK-MEL-28 melanoma = system: SK-MEL-28 melanoma
OVCAR-4 ovarian = system: OVCAR-4 ovarian
SW-620 colon = system: SW-620 colon
786-0 renal = system: 786-0 renal
DMS 273 small cell lung = system: DMS 273 small cell lung
HCT-116 colon = system: HCT-116 colon
MCF7 breast = system: MCF7 breast
MDA-N = system: MDA-N
OVCAR-3 ovarian = system: OVCAR-3 ovarian
RPMI-8226 leukemia = system: RPMI-8226 leukemia

What does the source list for `CN1C(=O)CC2(C)c3cc(O)ccc3N(C)C12` (stereo not drawn)?
GI50 (HL-60(TB) leukemia): 14.2 µM; TGI (HL-60(TB) leukemia): 31.5 µM and 70 µM; TGI (DLD-1 colon): > 100 µM; GI50 (NCI-H522 lung): 15.6 µM; TGI (NCI-H522 lung): 33.2 µM and 60 µM; GI50 (PC-3 prostate): > 75 µM; TGI (PC-3 prostate): > 100 µM; GI50 (SNB-75 CNS): > 75 µM; TGI (SNB-75 CNS): > 75 µM and 68.3 µM; TGI (UACC-62 melanoma): 38.6 µM and 45.5 µM; GI50 (SK-MEL-28 melanoma): 11.8 µM; TGI (SK-MEL-28 melanoma): 21.9 µM and > 79.2 µM; TGI (OVCAR-4 ovarian): 10.6 µM; GI50 (SW-620 colon): 13.9 µM; TGI (SW-620 colon): 28.9 µM and 42.6 µM; GI50 (786-0 renal): 23.8 µM; TGI (786-0 renal): 58.1 µM and 28.6 µM; TGI (DMS 273 small cell lung): > 100 µM; GI50 (HCT-116 colon): 22.8 µM; TGI (HCT-116 colon): 51.8 µM and 42.1 µM; GI50 (MCF7 breast): 14 µM; TGI (MCF7 breast): 27.8 µM and 35.8 µM; GI50 (MDA-N): 12.9 µM; TGI (MDA-N): 25.7 µM and 31.7 µM; GI50 (OVCAR-3 ovarian): 16.1 µM; TGI (OVCAR-3 ovarian): 32 µM and 30.9 µM; GI50 (RPMI-8226 leukemia): 20.3 µM; TGI (RPMI-8226 leukemia): 64.8 µM and 67.3 µM
